Measurements as given in patent US8003615B2, “Stable vitamin B6 derivative” (Daiichi Fine Chemical Co., Ltd., priority 2003, dated 2011).

Legend:
[1] = assay type: physicochemical; conditions: 0.5% (w/v) aqueous solution; for coloring of the aqueous solution after the light irradiation: D65 fluorescent lamp 13,000 Lx; for decomposition after light irradiation: pH about 6.3-7.2, D65 fluorescent lamp 13,000 Lx, room temperature, 14 days
Protocol: A 0.5% (w/v) aqueous solution of pyridoxine 3-β-D-glucoside (pH 6.7) in a volume of 0.3 ml was enclosed in a 1-ml volume glass ampoule, and irradiated with a D65 fluorescent lamp (Toshiba) for 14 days. The irradiation was performed at room temperature with an illumination of 13,000 Lx. Samples before the irradiation and after 1 day, 7 days and 14 days of the irradiation were analyzed by HPLC to measure a pyridoxine 3-β-D-glucoside content. A solution of pyridoxine hydrochloride of the same concentration (adjusted to pH 6.7) was treated in the same manner, and the results were compared. The HPLC measurement conditions were as follows.
Column: Inertsil ODS-3 ([…], ([…], φ4.6×150 mm, GL Science Inc.)
Eluent acetonitrile:0.1% (v/v) trifluoroacetic acid, 5 mM sodium 1-hexanesulfonate=1:9
Column temperature: 40° C.
Aqueous solutions (0.5% (w/v)) of pyridoxine 3-β-D-glucoside hydrochloride, pyridoxal 3-β-D-glucoside, pyridoxamine 3-β-D-glucoside, pyridoxine 3-β-D-galactoside, and pyridoxine hydrochloride (adjusted to pH 6.3 to 7.2 with HCl or NaOH) were each sealed in a volume of 0.3 ml in a 1-ml volume glass ampoule, and light irradiation and HPLC quantification were performed in the same manner as in Test Example 1. […] Test Example 4 (thermal stability of pyridoxine 3-β-D-glucoside hydrochloride and various 3-glycosides) […]

[2] = Thermal stability of aqueous solution kept at 50° C., HPLC; assay type: physicochemical; conditions: 0.5% (w/v) aqueous solution; for coloring of the aqueous solution after the warming: 50° C. for 90 days; for decomposed by warming: pH about 6.3-7.2, 50° C. for 90 days
Protocol: A 0.5% (w/v) aqueous solution of pyridoxine 3-β-D-glucoside (pH 6.7) in a volume of 0.3 ml was sealed in a 1-ml volume glass ampoule, and kept at 50° C. under light shielding. The sample was warmed for 90 days, and analyzed during the warming by HPLC (analysis conditions were the same as those applied in Test Example 1) to measure a pyridoxine 3-β-D-glucoside content. A solution of pyridoxine hydrochloride of the same concentration (adjusted to pH 6.7) was treated in the same manner, and the results were compared.
Aqueous solutions (0.5% (w/v)) of pyridoxine 3-β-D-glucoside hydrochloride, pyridoxal 3-β-D-glucoside, pyridoxamine 3-β-D-glucoside, pyridoxine 3-β-D-galactoside, pyridoxine hydrochloride, pyridoxal hydrochloride, and pyridoxamine hydrochloride (adjusted to pH 6.3 to 7.2 with HCl or NaOH) were each sealed in a volume of 0.3 ml in a 1-ml volume glass ampoule, […] in the same manner as in Test Example 2.
0.5% (w/v) Aqueous solutions of pyridoxine 3,4′-cyclic sodium phosphate and pyridoxine hydrochloride (adjusted to pH 6.5 to 6.8) were each sealed in a volume of 0.3 ml in a 1-ml volume glass ampoule, and warming at 50° C. and HPLC analysis were performed in the same manner as in Test Example 2.

hairless mouse = conditions: 2% sample applied on the back 90 minutes before ultraviolet irradiation, 2 hours, 5 times/week, ten weeks; positive control DETAPAC
Protocol: It was evaluated whether or not the sample prepared by the following preparing method suppressed wrinkle formation caused by ultraviolet irradiation.
DETAPAC was used as a positive control.
Mice (10-week old) in each group consisting of 8 mice were applied with each of the aforementioned samples on the back 90 minutes before ultraviolet irradiation, and irradiated with ultraviolet rays of a fixed quantity (Toshiba FL20 S-BLB lamp) for 2 hours (5 times/week) over ten weeks to examine suppressing effect on wrinkle formation.
Wrinkle formation after the ultraviolet irradiation of ten weeks was graded in accordance with the “skin photoaging grades” mentioned below. The results were indicated as averages of the scores for eight mice.

mouse B16 melanoma cells [3] = experiment: Test for melanin production suppression and cell survival rate in cultured cells; assay type: cell-based; design: key to Evaluation (whitening degree of B16 melanoma cells): +: whitening effect comparable to that of the control; ±: whitening effect a little weaker than that of the control; ×: no effect; −: test was not performed; conditions: for Evaluation (whitening degree of B16 melanoma cells): control 100 μg/ml kojic acid; for Cell growth rate: relative to control taken as 100%; for suppressing effect on melanin production: overall conclusion from the tables
Protocol: Cultured mouse B16 melanoma cells were used. An appropriate amount of MEM medium containing 10% FBS was added to wells of two 6-well plates, and the B16 melanoma cells were inoculated, and incubated at 37° C. with 5 volume % CO2. On the next day, a sample-containing solution was added so that the medium contained the vitamin B6 derivative (pyridoxine 3-β-D-glucoside or pyridoxine 3-β-D-glucoside hydrochloride) at a final solid concentrations shown in FIG. 20, and then mixed. On the 5th day of the culture, the medium was exchanged, and the sample-containing solution was again added. On the next day, the medium was removed, and for one plate, the cells were washed with phosphate buffer (pH 7.0), and then collected. Then, whitening degree of the cultured B16 melanoma cells was evaluated according to the criteria mentioned below by using 100 μg/ml kojic acid as a control. […] The cell growth rate is indicated with a relative ratio based on that of the control, which is taken as 100%.

mouse B16 melanoma cells [4] = experiment: Melanin production suppression by combination with whitening agent (arbutin); assay type: cell-based; conditions: substance and arbutin each 100 μM, 5 days culture, intracellular melanin relative to solvent control
Protocol: Cultured mouse B16 melanoma cells were used. A vitamin B6 derivative (pyridoxine 3-β-D-glucoside) and arbutin (Wako Pure Chemical Industries) dissolved in purified water at given concentrations were each added to the medium at a concentration of 100 μM. With exchanges of the medium during the culture, the cells were cultured for 5 days, and then collected. The cell number was counted, and then intracellular melanin was quantified. As a control added with a solvent, the medium added with purified water was used. Based on the amount of the melanin observed for the control added with the solvent, which was taken as 1, the relative amount of intracellular melanin observed for each sample concentration was considered a melanin production ratio.

[5] = 50° C., in pharmaceutical preparations; cited from earlier work
[6] = final concentration 333.3 μg/mL

Row | coloring of the aqueous solution after the light irradiation [1] | coloring of the aqueous solution after the warming [2] | decomposed by warming [2] | decomposition after light irradiation [1] | Compound | further results
1 | no coloring was observed | no coloring was observed | almost no decomposition | – | Cc1ncc(CO)c(C=O)c1O[C@@H]1O[C@H](CO)[C@@H](O)[C@H](O)[C@H]1O [pyridoxal 3-β-D-glucoside, Pyridoxal 3-β-D-glucoside] | –
2 | – | colored in yellow | ~55% | – | Cc1ncc(CO)c(C=O)c1O.Cl [pyridoxal hydrochloride, reference compound] | –
3 | no coloring was observed | no coloring was observed | almost no decomposition | not observed | Cc1ncc(CO)c(CN)c1O[C@@H]1O[C@H](CO)[C@@H](O)[C@H](O)[C@H]1O [pyridoxamine 3-β-D-glucoside, Pyridoxamine 3-β-D-glucoside] | –
4 | – | colored in yellow | ~85% | – | Cc1ncc(CO)c(CN)c1O.Cl [pyridoxamine hydrochloride, reference compound] | –
5 | – | no coloring was observed | almost no decomposition | no decomposition was observed | Cc1ncc(CO)c2c1OP(=O)([O-])OC2.[Na+] [pyridoxine 3,4′-cyclic sodium phosphate, Pyridoxine 3,4′-cyclic sodium phosphate] | –
6 | no coloring was observed | no coloring was observed | almost no decomposition | not observed | Cc1ncc(CO)c(CO)c1O[C@@H]1O[C@H](CO)[C@H](O)[C@H](O)[C@H]1O [pyridoxine 3-β-D-galactoside, Pyridoxine 3-β-D-galactoside] | –
7 | no coloring was observed | no coloring was observed | almost no decomposition | not observed | Cc1ncc(CO)c(CO)c1O[C@@H]1O[C@H](CO)[C@@H](O)[C@H](O)[C@H]1O.Cl [pyridoxine 3-β-D-glucoside hydrochloride] | suppressing effect on wrinkle formation (skin photoaging grades) (hairless mouse): comparable to or higher than that of DETAPAC; Evaluation (whitening degree of B16 melanoma cells) (mouse B16 melanoma cells [3]; final concentration 100 μg/mL): ×; Cell growth rate (mouse B16 melanoma cells [3]; final concentration 100 μg/mL): 100%; Evaluation (whitening degree of B16 melanoma cells) (mouse B16 melanoma cells [3]; [6]): ×; Cell growth rate (mouse B16 melanoma cells [3]; [6]): 100%; Evaluation (whitening degree of B16 melanoma cells) (mouse B16 melanoma cells [3]; final concentration 1000 μg/mL): ×; Cell growth rate (mouse B16 melanoma cells [3]; final concentration 1000 μg/mL): 97%; Evaluation (whitening degree of B16 melanoma cells) (mouse B16 melanoma cells [3]; final concentration 3333 μg/mL): +; Cell growth rate (mouse B16 melanoma cells [3]; final concentration 3333 μg/mL): 87%; suppressing effect on melanin production (mouse B16 melanoma cells [3]): superior suppressing effect on melanin production
8 | no coloring was observed | no coloring was observed | almost no decomposition | not observed | Cc1ncc(CO)c(CO)c1O[C@@H]1O[C@H](CO)[C@@H](O)[C@H](O)[C@H]1O [pyridoxine 3-β-D-glucoside, Pyridoxine 3-β-D-glucoside] | Evaluation (whitening degree of B16 melanoma cells) (mouse B16 melanoma cells [3]; final concentration 10 μg/mL): ×; Cell growth rate (mouse B16 melanoma cells [3]; final concentration 10 μg/mL): 101%; Evaluation (whitening degree of B16 melanoma cells) (mouse B16 melanoma cells [3]; final concentration 30 μg/mL): ×; Cell growth rate (mouse B16 melanoma cells [3]; final concentration 30 μg/mL): 101%; Evaluation (whitening degree of B16 melanoma cells) (mouse B16 melanoma cells [3]; final concentration 100 μg/mL): ×; Cell growth rate (mouse B16 melanoma cells [3]; final concentration 100 μg/mL): 101%; Evaluation (whitening degree of B16 melanoma cells) (mouse B16 melanoma cells [3]; final concentration 300 μg/mL): ±; Cell growth rate (mouse B16 melanoma cells [3]; final concentration 300 μg/mL): 101%; Evaluation (whitening degree of B16 melanoma cells) (mouse B16 melanoma cells [3]; final concentration 1000 μg/mL): +; Cell growth rate (mouse B16 melanoma cells [3]; final concentration 1000 μg/mL): 102%; suppressing effect on melanin production (mouse B16 melanoma cells [3]): superior suppressing effect on melanin production; suppressing effect on melanin production in combination with arbutin (mouse B16 melanoma cells [4]): superior suppressing effect on melanin production
9 | – | – | – | – | Cc1ncc(CO)c(CO[C@H]2O[C@H](CO)[C@@H](O)[C@H](O)[C@H]2O)c1O [pyridoxine 4′-α-D-glucoside] | long term stability compared with pyridoxine hydrochloride [5]: superior long term stability
10 | – | – | – | no decomposition was observed | N-(4-pyridoxylmethylene)-L-serine 3-β-D-glucoside | –
